Data: US11999727B2 (Tango Therapeutics, Inc., priority 2020, dated 2024)

What was measured:
PRMT5 [1] = target: T1, PRMT5 (Homo sapiens, UniProt O14744); assay: PRMT5 biochemical IC50 assay with SAM as cofactor; conditions: PRMT5, SAM as cofactor; read-out: SAM IC50
T1 construct: purchased Viva (custom protein)

PRMT5 [2] = target: T1, PRMT5; assay: PRMT5 biochemical IC50 assay with no cofactor; conditions: PRMT5, no cofactor; read-out: No Cofactor/ rel IC50
Excerpt: Table 1 indicates IC50 values (μM) against PRMT5 for exemplary compounds in the presence of SAM as cofactor, with no cofactor, and with MTA as cofactor, respectively (columns 4-6). […] Ki values can be calculated from the IC50 values as described in the Examples section. As detailed in the Examples section, for the assay performed in the presence of SAM, IC50=Ki×1.5 (Ki=IC50/1.5).

PRMT5 [3] = target: T1, PRMT5; assay: PRMT5 biochemical IC50 assay with MTA as cofactor; conditions: PRMT5, MTA as cofactor; read-out: MTA IC50
[4] = system: HAP1 MTAP-intact cell line; assay: SDMA in-cell western assay, HAP1 MTAP-intact; type: cell-based; conditions: Homo sapiens, HAP1, SDMA in-cell western, HAP1 MTAP-intact; read-out: MTAP HAP1 intact IC50
Procedure, shortened: (§1)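 Compounds were tested in HAP1 cells differing only in MTAP status (endogenous expression versus null). Cellular SDMA levels were then measured by in-cell western, giving an IC50 in each background.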

[5] = system: HAP1 MTAP-deleted cell line; assay: SDMA in-cell western assay, HAP1 MTAP-deleted; type: cell-based; conditions: for IC50: Homo sapiens, HAP1, SDMA in-cell western, HAP1 MTAP-deleted, read-out: HAP 1 MTAP deleted IC50; for MTAP intact/deleted ratio: IC50 ratio HAP1 MTAP-intact / HAP1 MTAP-deleted, SDMA in-cell western
Procedure, shortened: as §1

[6] = system: HAP1 MTAP-deleted cell line; assay: Viability assay, MTAP-deleted cell line; type: cell-based; conditions: Homo sapiens, HAP1, viability assay, MTAP-deleted cell line; read-out: HAP1 MTAP deleted viability
Excerpt: Table 1 additionally indicates IC50 values in a viability assay for the MTAP-deleted cell line (column 10), indicating the effect of treatment with compound on cell survival.

T1 sequence (O14744 whole entry): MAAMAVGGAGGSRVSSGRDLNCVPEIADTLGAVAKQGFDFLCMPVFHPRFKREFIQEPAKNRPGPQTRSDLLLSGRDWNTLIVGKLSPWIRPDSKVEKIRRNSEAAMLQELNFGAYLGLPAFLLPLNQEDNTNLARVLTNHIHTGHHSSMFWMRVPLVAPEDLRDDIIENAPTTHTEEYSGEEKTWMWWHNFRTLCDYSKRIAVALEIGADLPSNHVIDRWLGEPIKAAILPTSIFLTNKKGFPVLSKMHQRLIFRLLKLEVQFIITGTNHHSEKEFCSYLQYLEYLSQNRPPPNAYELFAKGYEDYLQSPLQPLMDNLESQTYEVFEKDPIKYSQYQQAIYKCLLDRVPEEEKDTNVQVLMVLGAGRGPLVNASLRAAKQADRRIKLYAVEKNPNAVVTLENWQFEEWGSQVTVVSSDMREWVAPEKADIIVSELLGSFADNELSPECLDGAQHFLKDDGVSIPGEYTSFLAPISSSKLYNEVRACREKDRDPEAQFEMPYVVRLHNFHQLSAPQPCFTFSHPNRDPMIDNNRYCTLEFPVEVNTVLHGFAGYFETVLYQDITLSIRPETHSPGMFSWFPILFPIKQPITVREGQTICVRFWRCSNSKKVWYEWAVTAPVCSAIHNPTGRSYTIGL
T1 sequence (Q9BQA1 whole entry partner): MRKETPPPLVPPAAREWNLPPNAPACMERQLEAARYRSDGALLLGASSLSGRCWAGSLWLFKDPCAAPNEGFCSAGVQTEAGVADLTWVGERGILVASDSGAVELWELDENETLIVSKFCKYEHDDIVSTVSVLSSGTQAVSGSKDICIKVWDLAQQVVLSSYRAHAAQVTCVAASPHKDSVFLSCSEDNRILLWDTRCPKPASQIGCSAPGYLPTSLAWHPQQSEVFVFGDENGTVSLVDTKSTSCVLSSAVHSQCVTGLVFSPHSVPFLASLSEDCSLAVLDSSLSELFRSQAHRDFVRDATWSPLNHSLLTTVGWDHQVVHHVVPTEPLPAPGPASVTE

Structure (SMILES) | IC50 (PRMT5 [1]) | IC50 (PRMT5 [2]) | IC50 (PRMT5 [3]) | IC50 [4] | IC50 [5] | MTAP intact/deleted ratio [5] | IC50 [6]
Cc1cncc(NC(=O)C(=O)N2C[C@H](C)CC[C@H]2c2ccc3ccccc3c2)c1 (racemic) [Compound 83, rac-2-((2R,5S)-5-methyl-2-(naphthalen-2-yl)piperidin-1-yl)-N-(5-methylpyridin-3-yl)-2-oxoacetamide] | > 500 nM | > 500 nM | 50 to 500 nM | > 1000 nM | > 1000 nM | C (an IC50 ratio of less than 3 fold) | > 10000 nM
NC(=O)c1cncc(NC(=O)C(=O)N2CC3CCC(C3)C2c2ccccc2)c1 (racemic) [Compound 86, rac-5-[[2-oxo-2-[(1R,4R,5S)-4-phenyl-3-azabicyclo[3.2.1]octan-3-yl]acetyl]amino]pyridine-3-carboxamide] | 50 to 500 nM | 50 to 500 nM | 50 to 500 nM | > 1000 nM | 100 to 1000 nM | A (an IC50 ratio greater than or equal to 10 fold) | > 10000 nM
Cc1cncc(NC(=O)C(=O)N2C[C@H](C)CC[C@H]2c2ccc(F)cc2)c1 (racemic) [Compound 89, rac-2-((2R,5S)-2-(4-fluorophenyl)-5-methylpiperidin-1-yl)-N-(5-methylpyridin-3-yl)-2-oxoacetamide] | > 500 nM | 50 to 500 nM | 50 to 500 nM | > 1000 nM | > 1000 nM | C (an IC50 ratio of less than 3 fold) | > 10000 nM
Cc1cncc(NC(=O)C(=O)N2C[C@H](C)CC[C@H]2c2cccc(N)c2)c1 (racemic) [Compound 91, 2-[(2R,5S)-2-(3-aminophenyl)-5-methyl-1-piperidyl]-N-(5-methyl-3-pyridyl)-2-oxo-acetamide] | > 500 nM | > 500 nM | 50 to 500 nM | > 1000 nM | > 1000 nM | C (an IC50 ratio of less than 3 fold) | > 10000 nM
CNC(=O)c1ccc([C@H]2CC[C@H](C)CN2C(=O)C(=O)Nc2cncc(C)c2)cc1 (racemic) [Compound 92, N-methyl-4-(5-methyl-1-(2-((5-methylpyridin-3-yl)amino)-2-oxoacetyl)piperidin-2-yl)benzamide] | > 500 nM | > 500 nM | 50 to 500 nM | > 1000 nM | > 1000 nM | C (an IC50 ratio of less than 3 fold) | > 10000 nM
CC(=O)N1CCC(c2cccc(C3CCCCN3C(=O)C(=O)Nc3cnc(N)c(C)c3)c2)CC1 (racemic) [Compound 95, 2-(2-(3-(1-acetylpiperidin-4-yl)phenyl)piperidin-1-yl)-N-(6-amino-5-methylpyridin-3-yl)-2-oxoacetamide] | 50 to 500 nM | 50 to 500 nM | < 50 nM | > 1000 nM | < 100 nM | A (an IC50 ratio greater than or equal to 10 fold) | 1000 to 10000 nM
C[C@@H]1CC[C@@H](c2cccs2)N(C(=O)C(=O)Nc2cncc(C(N)=O)c2)C1 (racemic) [Compound 99, 5-(2-(5-methyl-2-(thiophen-2-yl)piperidin-1-yl)-2-oxoacetamido)nicotinamide] | 50 to 500 nM | 50 to 500 nM | < 50 nM | > 1000 nM | < 100 nM | A (an IC50 ratio greater than or equal to 10 fold) | 1000 to 10000 nM
C[C@@H]1CC[C@@H](c2cccnc2)N(C(=O)C(=O)Nc2cncc(C(N)=O)c2)C1 (racemic) [Compound 102, 5-[[2-[5-methyl-2-(3-pyridyl)-1-piperidyl]-2-oxo-acetyl]amino]pyridine-3-carboxamide] | 50 to 500 nM | 50 to 500 nM | < 50 nM | > 1000 nM | 100 to 1000 nM | A (an IC50 ratio greater than or equal to 10 fold) | > 10000 nM
Cc1ncc([C@@H]2CC[C@@H](C)CN2C(=O)C(=O)Nc2cnc(N)c(C)c2)cn1 (racemic) [Compound 107, rac-N-(6-amino-5-methylpyridin-3-yl)-2-((2R,5S)-5-methyl-2-(2-methylpyrimidin-5-yl)piperidin-1-yl)-2-oxoacetamide] | 50 to 500 nM | > 500 nM | 50 to 500 nM | > 1000 nM | > 1000 nM | C (an IC50 ratio of less than 3 fold) | > 10000 nM
Cc1cc(NC(=O)C(=O)N2C[C@H](C)CC[C@H]2c2cncnc2)cnc1N (racemic) [Compound 109, rac-N-(6-amino-5-methylpyridin-3-yl)-2-((2R,5S)-5-methyl-2-(pyrimidin-5-yl)piperidin-1-yl)-2-oxoacetamide] | 50 to 500 nM | > 500 nM | 50 to 500 nM | > 1000 nM | > 1000 nM | B (an IC50 ratio greater than or equal to 3 fold but lower than 10 fold) | > 10000 nM
CC(=O)Nc1cccc([C@@H]2CC[C@@H](C)CN2C(=O)C(=O)Nc2cncc(C)c2)c1 (racemic) [Compound 110, 2-[(2S,5R)-2-(3-acetamidophenyl)-5-methyl-1-piperidyl]-N-(5-methyl-3-pyridyl)-2-oxo-acetamide] | 50 to 500 nM | 50 to 500 nM | 50 to 500 nM | > 1000 nM | > 1000 nM | B (an IC50 ratio greater than or equal to 3 fold but lower than 10 fold) | > 10000 nM
CC(=O)Nc1ccc([C@@H]2CC[C@@H](C)CN2C(=O)C(=O)Nc2cncc(C)c2)cc1 (racemic) [Compound 111, 2-[(2R,5S)-2-(4-acetamidophenyl)-5-methyl-1-piperidyl]-N-(5-methyl-3-pyridyl)-2-oxo-acetamide] | 50 to 500 nM | 50 to 500 nM | 50 to 500 nM | > 1000 nM | 100 to 1000 nM | A (an IC50 ratio greater than or equal to 10 fold) | > 10000 nM
Cc1cc(NC(=O)C(=O)N2[C@@H](C)CCC[C@H]2c2ccccc2)cnc1N (racemic) [Compound 112, N-(6-amino-5-methyl-3-pyridyl)-2-[rac-(2R,6R)-2-methyl-6-phenyl-1-piperidyl]-2-oxo-acetamide] | 50 to 500 nM | 50 to 500 nM | < 50 nM | 100 to 1000 nM | < 100 nM | B (an IC50 ratio greater than or equal to 3 fold but lower than 10 fold) | 1000 to 10000 nM
COc1cc([C@@H]2CC[C@@H](C)CN2C(=O)C(=O)Nc2cncc(C(N)=O)c2)ccc1Cl (racemic) [Compound 114, rac-rac-5-{2-[(2R,5S)-2-(4-chloro-3-methoxyphenyl)-5-methylpiperidin-1-yl]-2-oxoacetamido}pyridine-3-carboxamide] | 50 to 500 nM | 50 to 500 nM | < 50 nM | > 1000 nM | < 100 nM | A (an IC50 ratio greater than or equal to 10 fold) | > 10000 nM
Cc1cc(C)cc([C@@H]2CC[C@@H](C)CN2C(=O)C(=O)Nc2cncc(C(N)=O)c2)c1 (racemic) [Compound 118, rac-5-{2-[(2R,5S)-2-(3,5-dimethylphenyl)-5-methylpiperidin-1-yl]-2-oxoacetamido}pyridine-3-carboxamide] | 50 to 500 nM | > 500 nM | < 50 nM | > 1000 nM | 100 to 1000 nM | A (an IC50 ratio greater than or equal to 10 fold) | > 10000 nM
NC(=O)c1cncc(NC(=O)C(=O)N2CCCC3(C2)OC[C@@H]2C[C@@H]23)c1 (mixture of isomers) [Compound 124, rac-5-{2-[(R,5S)-3-Oxaspiro[bicyclo[3.1.0]hexane-2,3′-piperidine]-1′-yl]-2-oxoacetamido}pyridine-3-carboxamide] | > 500 nM | > 500 nM | 50 to 500 nM | > 1000 nM | > 1000 nM | C (an IC50 ratio of less than 3 fold) | > 10000 nM
C[C@@H]1CC[C@@H](c2cccc(C(N)=O)c2)N(C(=O)C(=O)Nc2cncc(C(N)=O)c2)C1 (racemic) [Compound 125, rac-5-{2-[(2R,5S)-2-(3-Carbamoylphenyl)-5-methylpiperidin-1-yl]-2-oxoacetamido}pyridine-3-carboxamide] | 50 to 500 nM | 50 to 500 nM | 50 to 500 nM | > 1000 nM | > 1000 nM | B (an IC50 ratio greater than or equal to 3 fold but lower than 10 fold) | > 10000 nM
